Reference: patent publication US20250333397A1 (REMIX THERAPEUTICS INC., priority 2021, published 2025)
pIC50: −log10 of the molar value. Like-named read-outs stand apart in the source and are kept apart here.

Columns and labels:
Type in all cases: cell-based, human
HTT mRNA = assay: RT-qPCR splicing assay, HTT canonical (CJ) and alternative (AJ) junction mRNA; settings: Homo sapiens; for AC50: read-out: HTT AJ (AC50, increase in AJ mRNA)
Procedure, shortened: (§1)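 24 h compound exposure of A673 or K562 cells at 37 °C, 10 uM top final concentration, 3-fold steps, DMSO ≤0.25%. Splice-isoform levels determined by qPCR on cDNA from lysates, run at least in duplicate; values expressed as RQ normalized to GAPDH, GUSB or PPIA and DMSO.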

MYB mRNA = assay: RT-qPCR splicing assay, MYB canonical (CJ) and alternative (AJ) junction mRNA; settings: Homo sapiens; for AC50: read-out: MYB AJ (AC50, increase in AJ mRNA)
Procedure, shortened: as §1

SMN2 mRNA = assay: RT-qPCR splicing assay panel, SMN2 canonical junction (CJ) mRNA; settings: Homo sapiens
Procedure, shortened: as §1

Target C mRNA = assay: RT-qPCR splicing assay panel, Target C canonical junction (CJ) mRNA; settings: Homo sapiens
Procedure, shortened: as §1

[1] = 24 h, Table 3A, A673 or K562 cells, 24 h treatment
[2] = 24 h, Table 3A, A673 or K562 cells, 24 h treatment, read-out: HTT CJ (IC50, decrease in CJ mRNA)
[3] = canonical junction (CJ) mRNA, RT-qPCR panel, Table 4A, read-out: HTT, decrease in CJ mRNA levels, IC50
[4] = 24 h, Table 3A, A673 or K562 cells, 24 h treatment, read-out: MYB CJ (IC50, decrease in CJ mRNA)
[5] = canonical junction (CJ) mRNA, RT-qPCR panel, Table 4A, read-out: MYB, decrease in CJ mRNA levels, IC50
[6] = canonical junction (CJ) mRNA, RT-qPCR panel, Table 4A, read-out: SMN2, decrease in CJ mRNA levels, IC50
[7] = canonical junction (CJ) mRNA, RT-qPCR panel, Table 4A, read-out: Target C, decrease in CJ mRNA levels, IC50
[8] = 24 h, Table 3B, A673 or K562 cells, 24 h treatment

Compound	pIC50 (HTT mRNA; [2])	pIC50 (HTT mRNA; [3])	pIC50 (MYB mRNA; [4])	pIC50 (MYB mRNA; [5])	pIC50 (SMN2 mRNA; [6])	pIC50 (Target C mRNA; [7])	pIC50 (HTT mRNA; 24 h, Table 3B, A673 or K562 cells, 24 h treatment, read-out: HTT CJ (IC50, decrease in CJ mRNA))	pIC50 (HTT mRNA; Table 4B, gene panel, read-out: HTT (IC50, decrease in CJ mRNA levels))	pIC50 (MYB mRNA; 24 h, Table 3B, A673 or K562 cells, 24 h treatment, read-out: MYB CJ (IC50, decrease in CJ mRNA))	pIC50 (MYB mRNA; Table 4B, gene panel, read-out: MYB (IC50, decrease in CJ mRNA levels))	pIC50 (SMN2 mRNA; Table 4B, gene panel, read-out: SMN2 (IC50, decrease in CJ mRNA levels))	pIC50 (Target C mRNA; Table 4B, gene panel, read-out: Target C (IC50, decrease in CJ mRNA levels))	AC50 (HTT mRNA; [1])	AC50 (MYB mRNA; [1])	AC50 (HTT mRNA; [8])	AC50 (MYB mRNA; [8])
Oc1cc(-c2cn[nH]c2)ccc1-c1ccc(N2CCC(NC3(C(F)(F)F)CC3)C2)nn1 (stereo not drawn) [Compound 110, 5-(1H-pyrazol-4-yl)-2-[6-(3-{[1-(trifluoromethyl)cyclopropyl]amino}pyrrolidin-1-yl)pyridazin-3-yl]phenol]	< 5.00	< 5.00	< 5.00	< 5.00	< 5.00	< 5.00							> 10000 nM	> 10000 nM		
COc1cc(-c2ccc(-c3cc(C#N)c(OC4CC(C)(C)NC(C)(C)C4)nn3)c(O)c2)cnn1 [Compound 424]	6.00 to 7.00	6.00 to 7.00	5.00 to 6.00	5.00 to 6.00	6.00 to 7.00	5.00 to 6.00							100 to 1000 nM	1000 to 10000 nM		
Cc1ncc(-c2cc(O)c(-c3cnc(OC4CC(C)(C)NC(C)(C)C4)nn3)cc2F)s1 [Compound 435]	6.00 to 7.00	6.00 to 7.00	5.00 to 6.00	5.00 to 6.00	> 7.00	6.00 to 7.00							100 to 1000 nM	1000 to 10000 nM		
COc1cc(-c2ccc(-c3ccc(N4CCC(CNC(C)(C)C)C4)nn3)c(O)c2)cnn1 (stereo not drawn) [Compound 351, 2-(6-{3-[(tert-butylamino)methyl]pyrrolidin-1-yl}pyridazin-3-yl)-5-(6-methoxypyridazin-4-yl)phenol]	> 7.00	> 7.00	6.00 to 7.00	6.00 to 7.00	6.00 to 7.00	6.00 to 7.00							100 to 1000 nM	1000 to 10000 nM		
Cc1nc2cc(O)c(-c3ccc(N4CC[C@@H](NC(C)(C)C(C)C)C4)nn3)cc2o1 [Compound 874]							> 7.00	> 7.00	6.00 to 7.00	6.00 to 7.00	> 7.00	6.00 to 7.00			< 100 nM	100 to 1000 nM

Now from value to compound, other results behind:

pIC50 (HTT mRNA; [2])	pIC50 (HTT mRNA; [3])	pIC50 (MYB mRNA; [4])	pIC50 (MYB mRNA; [5])	pIC50 (SMN2 mRNA; [6])	pIC50 (Target C mRNA; [7])	pIC50 (HTT mRNA; 24 h, Table 3B, A673 or K562 cells, 24 h treatment, read-out: HTT CJ (IC50, decrease in CJ mRNA))	pIC50 (HTT mRNA; Table 4B, gene panel, read-out: HTT (IC50, decrease in CJ mRNA levels))	pIC50 (MYB mRNA; 24 h, Table 3B, A673 or K562 cells, 24 h treatment, read-out: MYB CJ (IC50, decrease in CJ mRNA))	pIC50 (MYB mRNA; Table 4B, gene panel, read-out: MYB (IC50, decrease in CJ mRNA levels))	pIC50 (SMN2 mRNA; Table 4B, gene panel, read-out: SMN2 (IC50, decrease in CJ mRNA levels))	pIC50 (Target C mRNA; Table 4B, gene panel, read-out: Target C (IC50, decrease in CJ mRNA levels))	Compound	AC50 (HTT mRNA; [1])	AC50 (MYB mRNA; [1])	AC50 (HTT mRNA; [8])	AC50 (MYB mRNA; [8])
> 7.00	> 7.00	5.00 to 6.00	5.00 to 6.00	> 7.00	> 7.00							Cc1ncc(-c2cc(O)c(-c3ccc(N4CC[C@H](NCC5CCC5)C4)nn3)cc2F)s1 [Compound 411]	< 100 nM	100 to 1000 nM		
6.00 to 7.00	6.00 to 7.00	5.00 to 6.00	5.00 to 6.00	6.00 to 7.00	6.00 to 7.00							Cc1nc(C#N)c(-c2cc(O)c(-c3ccc(N4CC[C@H](NC5CCC5)C4)nn3)cc2F)s1 [Compound 429]	100 to 1000 nM	1000 to 10000 nM		
> 7.00	> 7.00	6.00 to 7.00	6.00 to 7.00	6.00 to 7.00	6.00 to 7.00							Cc1cn2nc(-c3ccc(-c4ccc(N5CCC(NC6CCC6)C5)nn4)c(O)c3)cc(C)c2n1 (stereo not drawn) [Compound 317]	100 to 1000 nM	100 to 1000 nM		
6.00 to 7.00	6.00 to 7.00	6.00 to 7.00	6.00 to 7.00	6.00 to 7.00	6.00 to 7.00							COc1nc(-c2cnc(N3CCC(NC4CCC4)C3)nn2)ccc1-c1cnc(C)s1 (stereo not drawn) [Compound 421]	100 to 1000 nM	100 to 1000 nM		
6.00 to 7.00	6.00 to 7.00	6.00 to 7.00	6.00 to 7.00	> 7.00	6.00 to 7.00							Cc1nsc(-c2cc(O)c(-c3ccc(N4CC[C@@H](NCC5CC5)C4)nn3)cc2F)n1 [Compound 431]	100 to 1000 nM	100 to 1000 nM		
6.00 to 7.00	6.00 to 7.00	6.00 to 7.00	6.00 to 7.00	> 7.00	6.00 to 7.00							COc1cc(-c2cc(O)c(-c3ccc(N4CC[C@@H](N[C@H]5C[C@@H](F)C5)C4)nn3)cc2F)cnn1 (racemic) [Compound 161, 4-fluoro-5-(6-methoxypyridazin-4-yl)-2-[6-(3-{[(1s,3s)-3-fluorocyclobutyl]amino}pyrrolidin-1-yl)pyridazin-3-yl]phenol]	100 to 1000 nM	100 to 1000 nM		
> 7.00	> 7.00	6.00 to 7.00	6.00 to 7.00	> 7.00	6.00 to 7.00							CNc1cc(-c2ccc(-c3ccc(N4CCC(NCC5CC5)C4)nn3)c(O)c2)ncn1 (stereo not drawn) [Compound 434]	< 100 nM	100 to 1000 nM		
